# According to patent publication US20210323977A1, “PYRROLIDINYL AMIDE COMPOUNDS FOR THE TREATMENT OF AUTOIMMUNE DISEASE” (Hoffmann-La Roche Inc., priority 2018, published 2021):
# Molecular target: T1, human TLR9 (Homo sapiens, UniProt Q9NR96)
# T1 sequence (Q9NR96 26-1032): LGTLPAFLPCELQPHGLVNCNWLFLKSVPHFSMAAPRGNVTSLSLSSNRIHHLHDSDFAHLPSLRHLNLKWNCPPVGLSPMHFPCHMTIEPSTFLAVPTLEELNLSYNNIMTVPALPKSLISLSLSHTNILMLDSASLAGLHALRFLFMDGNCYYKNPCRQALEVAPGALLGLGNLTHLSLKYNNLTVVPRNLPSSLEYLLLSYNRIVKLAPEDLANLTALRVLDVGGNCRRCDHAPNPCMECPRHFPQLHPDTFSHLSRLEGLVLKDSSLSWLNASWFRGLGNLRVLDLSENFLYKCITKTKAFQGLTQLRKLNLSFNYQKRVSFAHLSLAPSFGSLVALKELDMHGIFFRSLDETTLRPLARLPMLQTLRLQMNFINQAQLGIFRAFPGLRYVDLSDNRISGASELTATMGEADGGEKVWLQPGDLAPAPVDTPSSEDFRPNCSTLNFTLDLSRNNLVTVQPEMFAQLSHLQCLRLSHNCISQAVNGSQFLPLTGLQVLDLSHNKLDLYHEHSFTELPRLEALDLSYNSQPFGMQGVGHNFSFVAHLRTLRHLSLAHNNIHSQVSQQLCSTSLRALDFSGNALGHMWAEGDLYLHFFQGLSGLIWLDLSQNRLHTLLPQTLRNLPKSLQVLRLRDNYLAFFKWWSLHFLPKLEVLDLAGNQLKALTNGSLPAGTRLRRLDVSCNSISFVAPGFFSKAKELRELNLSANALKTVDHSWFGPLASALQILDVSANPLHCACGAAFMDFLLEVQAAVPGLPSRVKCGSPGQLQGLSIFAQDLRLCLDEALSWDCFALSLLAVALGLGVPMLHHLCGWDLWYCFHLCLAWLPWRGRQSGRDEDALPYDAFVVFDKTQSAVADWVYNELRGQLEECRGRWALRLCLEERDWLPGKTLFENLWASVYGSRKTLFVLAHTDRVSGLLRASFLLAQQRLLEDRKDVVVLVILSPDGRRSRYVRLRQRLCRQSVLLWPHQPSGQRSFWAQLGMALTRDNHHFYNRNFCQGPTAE
# Assay: HEK293-Blue-hTLR-9 cells assay
# Format: cell-based
# Settings: HEK293-Blue-hTLR9 cells, SEAP reporter, ODN2006 stimulation, 20 hrs
# Description: HEK293-Blue-hTLR-9 Cells Assay:
# A stable HEK293-Blue-hTLR-9 cell line was purchased from InvivoGen (Cat. #: hkb-htlh9, San Diego, Calif., USA). These cells were originally designed for studying the stimulation of human TLR9 by monitoring the activation of NF-κB. A SEAP (secreted embryonic alkaline phosphatase) reporter gene was placed under the control of the IFN-β minimal promoter fused to five NF-κB and AP-1-binding sites. The SEAP was induced by activating NF-κB and AP-1 via stimulating HEK-Blue hTLR9 cells with TLR9 ligands. Therefore the reporter expression was declined by TLR9 antagonist under the stimulation of a ligand, such as ODN2006 (Cat. #: tlrl-2006-1, Invivogen, San Diego, Calif., USA), for incubation of 20 hrs. The cell culture supernatant SEAP reporter activity was determined using QUANTI-Blue™ kit (Cat. #: rep-qb1, Invivogen, San Diego, Calif., USA) at a wavelength of 640 nm, a detection medium that turns purple or blue in the presence of alkaline phosphatase.
# HEK293-Blue-hTLR9 cells were incubated at a density of 250,000-450,000 cells/mL in a volume of 170 μL in a 96-well plate in Dulbecco's Modified Eagle's medium (DMEM) containing 4.5 g/L glucose, 50 U/mL penicillin, […], […], 2 mM L-glutamine, 10% (v/v) heat-inactivated fetal bovine serum with addition of 20 sL test compound in a serial dilution in the presence of final DMSO at 1% and 10 sL of 20 uM ODN2006 in above DMEM, perform incubation under 37° C. in a CO2 incubator for 20 hrs. Then 20 sL of the supernatant from each well was incubated with 180 μL Quanti-blue substrate solution at 37° C. for 2 hrs and the absorbance was read at 620-655 nm using a spectrophotometer. The signalling pathway that TLR9 activation leads to downstream NF-x3B activation has been widely accepted, and therefore similar reporter assay was modified for evaluating TLR9 antagonist.
row,SMILES,IC50 [µM]
1,"N#Cc1ccc(N2C[C@@H](C(F)(F)F)[C@H](C(=O)N[C@H]3CNC[C@H]3F)C2)c2cccnc12 [Example 47, Trans-1-(8-cyano-5-quinolyl)-N-[(3S,4R)-4-fluoropyrrolidin-3-yl]-4-(trifluoromethyl)pyrrolidine-3-carboxamide]",23.1
2,"C[C@H]1CN(c2ccc(Cl)c3ncccc23)C[C@@H]1C(=O)NC1CCN(C)CC1 [Example 50, (3R,4R)-1-(8-chloro-5-quinolyl)-4-methyl-N-(1-methyl-4-piperidyl)pyrrolidine-3-carboxamide]",3.4
3,"CN1CCCC(CNC(=O)C2CN(c3ccc(C#N)c4ncccc34)CC23CC3)C1 (centres unmarked) [Example 51, 5-(8-Cyano-5-quinolyl)-N-[(1-methyl-3-piperidyl)methyl]-5-azaspiro[2.4]heptane-7-carboxamide]",2
4,"C[C@@H]1CN(c2ccc(C#N)c3ncccc23)C[C@H]1C(=O)N[C@H]1CNC[C@H]1F [Example 56, Trans-1-(8-cyano-5-quinolyl)-N-[(3S,4R)-4-fluoropyrrolidin-3-yl]-4-methyl-pyrrolidine-3-carboxamide]",18.6
5,"C[C@H]1CN(c2ccc(C#N)c3nccnc23)C[C@@H]1C(=O)NC1CCN(C2CCNCC2)CC1 [Example 60, (3R,4R)-1-(8-cyanoquinoxalin-5-yl)-4-methyl-N-[1-(4-piperidyl)-4-piperidyl]pyrrolidine-3-carboxamide]",3.2
